What was measured:
Experiment in all cases: Competitive isoTOP-ABPP, cell lysates
Format in all cases: binding
STAT3 C259 (P40763) = STAT3 C259 (P40763) (Homo sapiens, UniProt P40763); conditions: for isoTOP-ABPP ratio (reactivity profile), P40763_C259: 500 μm in-vitro ramos; for isoTOP-ABPP ratio, P40763_C259: 500 μM, invitro; for R value (DMSO/fragment): 250 μM, in vitro
PDIA6 C55 (Q15084) = target: T1, PDIA6 C55 (Q15084) (Homo sapiens, UniProt Q15084); conditions: for isoTOP-ABPP ratio Q15084_C55: 500 μM, invitro; for R value (DMSO/fragment): 250 μM, in vitro
T1 sequence (Q15084 20-440): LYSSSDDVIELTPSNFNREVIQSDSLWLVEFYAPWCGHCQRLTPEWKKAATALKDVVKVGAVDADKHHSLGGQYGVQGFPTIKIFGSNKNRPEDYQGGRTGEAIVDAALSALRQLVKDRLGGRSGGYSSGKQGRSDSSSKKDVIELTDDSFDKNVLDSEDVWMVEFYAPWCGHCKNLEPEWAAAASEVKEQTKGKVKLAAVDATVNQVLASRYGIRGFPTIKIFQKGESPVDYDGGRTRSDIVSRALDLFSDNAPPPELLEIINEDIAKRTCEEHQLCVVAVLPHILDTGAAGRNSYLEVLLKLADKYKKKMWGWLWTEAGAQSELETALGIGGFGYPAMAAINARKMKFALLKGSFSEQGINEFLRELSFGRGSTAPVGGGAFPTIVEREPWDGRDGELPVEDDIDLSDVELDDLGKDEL

IDH2 C308 (P48735) = target: T2, IDH2 C308 (P48735) (Homo sapiens, UniProt P48735); conditions: for isoTOP-ABPP ratio (reactivity profile), P48735_C308: 500 μm in-vitro ramos_231; for isoTOP-ABPP ratio, P48735_C308: 500 μM, invitro, 231
T2 sequence (P48735 40-452): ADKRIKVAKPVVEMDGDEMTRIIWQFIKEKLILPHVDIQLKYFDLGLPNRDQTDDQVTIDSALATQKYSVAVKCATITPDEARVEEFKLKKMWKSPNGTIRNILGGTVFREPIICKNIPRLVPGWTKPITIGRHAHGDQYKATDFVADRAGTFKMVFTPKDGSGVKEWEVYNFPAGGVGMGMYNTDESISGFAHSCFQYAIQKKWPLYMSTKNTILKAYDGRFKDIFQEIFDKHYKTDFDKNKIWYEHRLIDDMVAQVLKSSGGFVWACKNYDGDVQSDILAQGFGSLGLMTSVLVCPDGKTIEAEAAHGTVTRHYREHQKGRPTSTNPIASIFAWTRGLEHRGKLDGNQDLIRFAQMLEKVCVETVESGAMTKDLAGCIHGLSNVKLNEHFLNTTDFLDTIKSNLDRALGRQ

IDH1 C269 (O75874) = IDH1 C269 (O75874) (Homo sapiens, UniProt O75874); conditions: for isoTOP-ABPP ratio, O75874_C269: 500 μM, invitro
Sequence of IDH1 C269 (O75874) (O75874 whole entry, the tested form may be a part): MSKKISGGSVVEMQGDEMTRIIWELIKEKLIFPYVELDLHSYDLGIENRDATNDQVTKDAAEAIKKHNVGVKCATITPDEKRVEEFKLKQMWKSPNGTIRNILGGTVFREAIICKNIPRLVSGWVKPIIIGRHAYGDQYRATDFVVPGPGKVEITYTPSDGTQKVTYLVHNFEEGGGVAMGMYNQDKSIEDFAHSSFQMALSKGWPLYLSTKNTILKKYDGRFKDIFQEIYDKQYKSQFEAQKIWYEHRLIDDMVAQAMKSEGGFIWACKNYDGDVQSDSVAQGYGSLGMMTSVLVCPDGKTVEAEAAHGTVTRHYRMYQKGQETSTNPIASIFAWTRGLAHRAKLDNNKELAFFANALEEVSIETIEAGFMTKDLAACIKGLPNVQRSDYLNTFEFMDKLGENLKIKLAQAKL

XPO1 C528 (O14980) = XPO1 C528 (O14980) (Homo sapiens, UniProt O14980); conditions: for isoTOP-ABPP ratio O14980_C528: 500 μM, invitro; for R value (DMSO/fragment): 250 μM, in vitro
Sequence of XPO1 C528 (O14980) (O14980 whole entry, the tested form may be a part): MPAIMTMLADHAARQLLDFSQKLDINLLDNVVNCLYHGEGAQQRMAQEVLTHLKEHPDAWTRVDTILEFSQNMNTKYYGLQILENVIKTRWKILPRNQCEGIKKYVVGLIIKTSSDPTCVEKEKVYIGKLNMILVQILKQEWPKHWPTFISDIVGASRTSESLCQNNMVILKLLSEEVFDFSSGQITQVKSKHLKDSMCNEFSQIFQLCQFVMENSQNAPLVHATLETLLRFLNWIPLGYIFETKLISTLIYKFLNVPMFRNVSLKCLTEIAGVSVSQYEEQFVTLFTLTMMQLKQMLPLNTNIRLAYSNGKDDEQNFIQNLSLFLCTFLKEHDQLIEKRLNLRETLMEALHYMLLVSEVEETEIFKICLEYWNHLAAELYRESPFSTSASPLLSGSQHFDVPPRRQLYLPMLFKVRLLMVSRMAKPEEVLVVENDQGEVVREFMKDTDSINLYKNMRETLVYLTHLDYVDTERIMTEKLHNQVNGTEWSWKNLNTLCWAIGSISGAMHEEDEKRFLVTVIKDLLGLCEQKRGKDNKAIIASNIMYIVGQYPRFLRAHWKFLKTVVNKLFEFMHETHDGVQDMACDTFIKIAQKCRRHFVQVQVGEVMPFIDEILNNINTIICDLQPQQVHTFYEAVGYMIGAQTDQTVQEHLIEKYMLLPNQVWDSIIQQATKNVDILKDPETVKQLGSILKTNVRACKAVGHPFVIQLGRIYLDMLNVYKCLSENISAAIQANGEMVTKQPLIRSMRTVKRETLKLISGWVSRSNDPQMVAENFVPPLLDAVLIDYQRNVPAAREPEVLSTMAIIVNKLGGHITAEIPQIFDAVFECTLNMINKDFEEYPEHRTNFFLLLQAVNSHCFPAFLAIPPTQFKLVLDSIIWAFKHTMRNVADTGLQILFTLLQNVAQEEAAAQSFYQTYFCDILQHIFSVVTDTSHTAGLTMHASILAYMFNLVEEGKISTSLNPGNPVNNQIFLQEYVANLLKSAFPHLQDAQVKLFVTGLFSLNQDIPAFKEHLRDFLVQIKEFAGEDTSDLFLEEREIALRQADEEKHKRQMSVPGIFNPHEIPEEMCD

AIP C122 (O00170) = target: T3, AIP C122 (O00170) (Homo sapiens, UniProt O00170); conditions: for isoTOP-ABPP ratio, O00170_C122: 500 μM, invitro, ramos; for R value (DMSO/fragment): 250 μM, in vitro
T3 sequence (O00170 1-330): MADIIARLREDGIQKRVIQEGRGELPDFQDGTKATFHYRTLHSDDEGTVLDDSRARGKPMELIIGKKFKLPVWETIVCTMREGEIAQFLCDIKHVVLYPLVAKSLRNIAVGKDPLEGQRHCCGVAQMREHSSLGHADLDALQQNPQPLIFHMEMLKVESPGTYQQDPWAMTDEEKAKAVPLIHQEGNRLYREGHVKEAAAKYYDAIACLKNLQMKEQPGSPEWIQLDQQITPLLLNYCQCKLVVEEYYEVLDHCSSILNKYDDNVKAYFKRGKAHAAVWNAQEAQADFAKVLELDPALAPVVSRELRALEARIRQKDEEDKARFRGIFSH

Sequence of STAT3 C259 (P40763) (P40763 whole entry, the tested form may be a part): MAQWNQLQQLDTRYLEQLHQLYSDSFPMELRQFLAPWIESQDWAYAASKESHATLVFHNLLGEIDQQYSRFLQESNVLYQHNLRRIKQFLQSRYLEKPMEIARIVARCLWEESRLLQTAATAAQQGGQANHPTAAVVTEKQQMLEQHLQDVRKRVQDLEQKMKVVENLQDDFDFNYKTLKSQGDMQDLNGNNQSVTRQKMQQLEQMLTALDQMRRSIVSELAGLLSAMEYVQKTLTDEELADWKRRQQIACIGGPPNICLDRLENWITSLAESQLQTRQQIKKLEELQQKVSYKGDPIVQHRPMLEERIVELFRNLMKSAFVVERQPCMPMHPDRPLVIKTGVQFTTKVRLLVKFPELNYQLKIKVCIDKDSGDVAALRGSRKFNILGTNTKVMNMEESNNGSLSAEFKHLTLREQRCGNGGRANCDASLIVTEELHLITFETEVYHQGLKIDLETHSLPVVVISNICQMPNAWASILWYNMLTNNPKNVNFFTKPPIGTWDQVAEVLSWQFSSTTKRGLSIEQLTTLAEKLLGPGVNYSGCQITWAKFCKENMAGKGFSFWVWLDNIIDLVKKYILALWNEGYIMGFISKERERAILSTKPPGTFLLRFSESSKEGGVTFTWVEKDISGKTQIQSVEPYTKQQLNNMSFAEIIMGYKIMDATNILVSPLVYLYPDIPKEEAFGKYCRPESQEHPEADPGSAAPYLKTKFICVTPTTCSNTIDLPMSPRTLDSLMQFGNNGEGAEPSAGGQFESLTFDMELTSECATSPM

Structure (SMILES)	isoTOP-ABPP ratio (reactivity profile), P40763_C259 (STAT3 C259 (P40763))	isoTOP-ABPP ratio (reactivity profile), Q15084_C55 (PDIA6 C55 (Q15084); 500 μm in-vitro ramos)	isoTOP-ABPP ratio (reactivity profile), Q15084_C55 (PDIA6 C55 (Q15084); 500 μm in-vitro ramos_231)	isoTOP-ABPP ratio (reactivity profile), P48735_C308 (IDH2 C308 (P48735))	isoTOP-ABPP ratio (reactivity profile), O14980_C528 (XPO1 C528 (O14980); 500 μm in-vitro ramos)	isoTOP-ABPP ratio (reactivity profile), O14980_C528 (XPO1 C528 (O14980); 500 μm in-vitro ramos_231)	isoTOP-ABPP ratio, P40763_C259 (STAT3 C259 (P40763); ramos)	isoTOP-ABPP ratio Q15084_C55 (PDIA6 C55 (Q15084); 231)	isoTOP-ABPP ratio Q15084_C55 (PDIA6 C55 (Q15084); ramos)	isoTOP-ABPP ratio, P48735_C308 (IDH2 C308 (P48735))	isoTOP-ABPP ratio, O75874_C269 (IDH1 C269 (O75874); 231)	isoTOP-ABPP ratio O14980_C528 (XPO1 C528 (O14980); ramos)	isoTOP-ABPP ratio, O00170_C122 (AIP C122 (O00170))	further results
O=C(CCl)N1CCC(C(O)(c2ccccc2)c2ccccc2)CC1 [compound 20]	3.0	2.0	1.7	0.5	4.0	1.4								R value (DMSO/fragment) (IDH1 C269 (O75874); 25 μM, endogenous IDH1, MDA-MB-231 proteome): 20; isoTOP-ABPP ratio (reactivity profile), O75874_C269 (IDH1 C269 (O75874); 500 μm in-vitro ramos): 0.6; isoTOP-ABPP ratio (reactivity profile), O00170_C122 (AIP C122 (O00170); 500 μm in-vitro ramos): 2.2
O=C(CCl)NCCc1c[nH]c2ccccc12 [compound 13]							1.2	1.9	1.1	1.1	2.7	0.5	0.9	
COc1ccc(C2CC(c3cccs3)=NN2C(=O)CCl)cc1 (stereo not drawn) [compound 4]														R value (DMSO/fragment) (STAT3 C259 (P40763); MDA-MB-231): 2.0; R value (DMSO/fragment) (STAT3 C259 (P40763); Ramos): 1.9; R value (DMSO/fragment) (PDIA6 C55 (Q15084); MDA-MB-231): 1.3; R value (DMSO/fragment) (PDIA6 C55 (Q15084); Ramos): 1.2; R value (DMSO/fragment) (IDH2 C308 (P48735); 250 μM, in vitro, MDA-MB-231): 0.7; R value (DMSO/fragment) (IDH1 C269 (O75874); 250 μM, in vitro, MDA-MB-231): 1.6; R value (DMSO/fragment) (IDH1 C269 (O75874); 250 μM, in vitro, Ramos): 0.6; R value (DMSO/fragment) (XPO1 C528 (O14980); MDA-MB-231): 0.9; R value (DMSO/fragment) (XPO1 C528 (O14980); Ramos): 1.1; R value (DMSO/fragment) (AIP C122 (O00170); MDA-MB-231): 2.5; R value (DMSO/fragment) (AIP C122 (O00170); Ramos): 0.3
O=C(CCl)NC12CC3CC(CC(C3)C1)C2 [compound 21]	2.9	2.1	1.1	0.6	0.8	0.9								isoTOP-ABPP ratio (reactivity profile), O75874_C269 (IDH1 C269 (O75874); 500 μm in-vitro ramos_231): 1.5; isoTOP-ABPP ratio (reactivity profile), O00170_C122 (AIP C122 (O00170); 500 μm in-vitro ramos_231): 1.4
Cn1cc(S(=O)(=O)N2CCOCC2)cc1C(=O)NC(=O)CCl [compound 11]							20.0	20.0	20.0	1.1	1.1	0.7	2.8	isoTOP-ABPP ratio, P40763_C259 (STAT3 C259 (P40763); 231): 20.0; isoTOP-ABPP ratio, O75874_C269 (IDH1 C269 (O75874); ramos): 0.7; isoTOP-ABPP ratio O14980_C528 (XPO1 C528 (O14980); 231): 1.0

From US10670605B2, “Cysteine reactive probes and uses thereof” (The Scripps Research Institute, priority 2015, dated 2020)
